# According to patent US20130131140A1, “TREATMENT OF DIABETES AND DISORDERS ASSOCIATED WITH VISCERAL OBESITY WITH INHIBITORS OF HUMAN ARACHIDONATE 12 LIPOXYGENASE AND ARACHIDONATE 15-LIPOXYGENASE” (priority 2010, published 2013):
# “Also recorded” adds a separate entry of the source.
# Key:
# [1] = system: JNK-1 and -2; test: Western immunoblot of phosphorylated JNK in human islets; format: cell-based; settings: human islets treated with 12(S)-HETE
# Description: (§1) Equal amounts of whole islet cell protein extracts were separated on polyacrylamide-sodium dodecyl sulfate gels and transferred to polyvinylidene difluoride transfer membranes (GE Healthcare, Buckinghamshire, UK). The blots were probed with primary antibodies, and bands were detected using horseradish […] secondary antibodies (GE Healthcare UK Limited, Chalfont, UK) and the enhanced chemiluminescence detection system (GE Healthcare).
# (§2) Rabbit PAb anti-p38-MAPK (pTpY180/182) and anti-c-Jun N-terminal kinase (JNK)-1 and -2 (pTpY183/185) were purchased from Alpha BioSource/Invitrogen and were used at a 1:500 dilution. Mouse monoclonal anti-p38-MAPK (A-12) and rabbit polyclonal anti-actin (1-19) were purchased from Santa Cruz Biotechnology (Santa Cruz, Calif.). p38-MAPK was used at a 1:500 dilution, and actin was used at a 1:2500 dilution. Rabbit anti-12-LO (see Ref. 8) was used at a 1:1000 dilution.
# (§3) To determine whether treating islets with 12(S)-HETE would affect the activity of two well-known stress-mediated pathways linked to β-cell damage, p38-MAPK and JNK in human islets, were investigated. […] The results are presented as the means±SD. *, P<0.05 compared with the corresponding control; #, P<0.05 compared with the cytokine treatment group.
# [2] = system: p38-MAPK; test: Western immunoblot of phosphorylated p38-MAPK in human islets; format: cell-based
# Description: as §1, §2, §3
# [3] = system: human islets; test: Cell death by propidium iodide (PI) fluorescence; format: cell-based; settings: for cell death, PI staining intensity: overnight incubation
# Experimental: Islets were treated with 20 μg/ml of propidium iodide (PI) and incubated for 10 minutes. Islets were imaged once under brightfield illumination to determine the islet borders and imaged again to measure PI fluorescence using 535-nm excitation and 617-nm emission as previously reported (11). Islets were circled, and the mean PI fluorescence intensity was determined for each islet individually. Three separate trials from three donors were conducted.
# Islet cell death was evaluated by PI staining in islets after overnight incubation with 1, 10, or 100 nM 12(S)-HETE. […] This finding is consistent with dose-response measures of cell death previously observed with mouse islets (8).
# [4] = system: human islets; test: Glucose-stimulated insulin secretion in human islets; format: cell-based; settings: for effect on insulin secretion: human islets, 1 and 100 nM, 4 hours incubation, then 1 hour in 11 mM glucose
# Experimental: In other studies, human islets were cultured in CMRL medium-1066 (Invitrogen) with 5% fetal bovine serum overnight and then transitioned to serum free Kreb-Ringer buffer at 37° C., and islets were incubated with and without HETEs in 3 and 18 mM glucose for 4 hours, as shown in FIG. 12. The supernatant was collected after each treatment, and insulin concentration in the supernatant was measured by an enzyme immunoassay method (Mercodia, Uppsala, Sweden) with a mouse or human insulin standard. The intraassay variation was less than 4%, and the interassay variation was less than 10%.
# LOs catalyze the oxidation of linoleic acid and arachidonic acid, generating products of varying stability. […] Referring to FIGS. 13A and 13B, 12(S)-HETE, 15(S)-HETE, 12-HPETE, and 12-RHETE were tested at 1 and 100 nM doses to examine their effects on insulin secretion. Human islets were incubated with the various HETEs for 4 hours and then assessed for insulin secretion during a 1-hour period incubated in 11 mM glucose. Also confirmed were the effects of 12(S)-HETE on basal (3 mM) and stimulated (18 mM) glucose concentration.
# [5] = system: human islets; settings: 50 μm LSF overnight pretreatment, then 1 nm 12(S)-HETE 4 hours
# Experimental: Viability was assessed by detecting 3-(4,5-dimethylthiazol-2-yl)-2,5-diphenyltetrazolium bromide (MTT; Sigma-Aldrich) metabolism as previously described (17).
# Human islets from four different human donors were pretreated with 50 μm LSF overnight or untreated as indicated. Islets were then treated with 1 nm 12(S)-HETE for 4 hours and incubated in 11 mm glucose for 1 hour to measure islet metabolic activity by MTT assay (A) or insulin secretion (B).
# [6] = human islets treated with 12(S)-HETE
smiles,measurement,setting,value
"CCCCC/C=C\C[C@@H](O)/C=C/C=C\C/C=C\CCCC(=O)O [12(S)-HETE, 12-hydroxyeicosatetraenoic acid]",phosphorylated JNK (ppJNK1 and -2) activity,[1],not affected
same,phosphorylated p38 (pp38) protein activity,[2]; [6],increased phosphorylated p38
same,total p38-MAPK (p38),[2]; [6],without any change
same,increase in cell death,[3]; 100 nM,50%
same,"cell death, PI staining intensity",[3]; 100 nM,significant increase in cell death
same,"cell death, PI staining intensity",[3]; 1 or 10 nM,no significant increase in cell death
same,effect on insulin secretion,[4],consistently reduced; also recorded: most substantial reduction in insulin secretion
"CCCCC/C=C\CC(/C=C/C=C\C/C=C\CCCC(=O)O)OO (stereo not drawn) [12-HPETE, 12-hydroperoxyeicosatetraenoic acid]",effect on insulin secretion,[4],consistently reduced
same,effect on insulin secretion,[4]; listed as 12(S)HPETE,most substantial reduction in insulin secretion
"N#CC(=Cc1ccc(O)c(O)c1)C(=O)OCC=Cc1ccccc1 [CDC, cinnamyl-3,4-dihydroxy-α-cyanocinnamate]",cytokine-induced pp38-MAPK activity,"[2]; human islets pretreated with CDC, cytokines TNF-α, IFN-γ, IL-1β",significantly reduced; also recorded: blocked
"C[C@@H](O)CCCCn1c(=O)c2c(ncn2C)n(C)c1=O [LSF, Lisofylline]",reversal of 12(S)-HETE effects on metabolic activity (MTT assay),[5],partially reversed
same,reversal of 12(S)-HETE-induced reduction in insulin secretion,"[4]; 50 μm LSF overnight pretreatment, then 1 nm 12(S)-HETE 4 hours, 11 mm glucose 1 hour",reversed
